From US5747327A, “Phospholipase D gene originated from plant” (priority 1993, dated 1998)

Experiments:
[1] = biological target: T1, rice bran phospholipase D (PLD), Oryza sativa variety Koshihikari, eluted solution Mono Q 2nd-I (Oryza sativa, UniProt Q43007); test: Km of purified rice bran PLD, fraction Mono Q 2nd-I (choline oxidase method); type: biochemical; settings: Mono Q 2nd-I fraction; phosphatidylcholine as the substrate, choline quantified by choline oxidase method
T1 construct: processed N-terminus (residues 1-46 removed according to earlier note), precursor 812 aa
Experimental: (§1) For the purification, a reference relating to the purification of rice bran PLD (Takano et al., J. Jpn. Soc. Food Sci. Technol., 34, 8-13 (1987)) was referred. The enzyme activity was measured by using phosphatidylcholine as the substrate and by quantifying the choline generated by the enzyme reaction by the choline oxidase method (Imamura et al., J. Biochem. 83, 677-680 (1978)). The enzyme reaction, however, was stopped by heat treatment at 95° C. for 5 minutes.
(§2) The two fractions were analyzed for properties of the enzymes contained therein. […] The pH stability means the range in which decrease in activity was not observed after leaving the enzyme to stand at 25° C. for 30 minutes. The temperature stability was measured by measuring remaining activity after leaving the enzyme to stand at 4° C., 25° C., 37° C. or 50° C. for 30 minutes. The substrate specificity was measured at a substrate concentration of 5 mM and is expressed as a relative activity taking the enzyme activity to phosphatidylcholine as 100.

[2] = biological target: T2, rice bran phospholipase D (PLD), Oryza sativa variety Koshihikari, eluted solution Mono Q 2nd-II (Oryza sativa, UniProt Q43007); test: Km of purified rice bran PLD, fraction Mono Q 2nd-II (choline oxidase method); type: biochemical; settings: Mono Q 2nd-II fraction; phosphatidylcholine as the substrate, choline quantified by choline oxidase method
T2 construct: processed N-terminus (residues 1-46 removed according to earlier note), precursor 812 aa
Experimental: as §1, §2

T2 sequence (Q43007 47-812 P139S): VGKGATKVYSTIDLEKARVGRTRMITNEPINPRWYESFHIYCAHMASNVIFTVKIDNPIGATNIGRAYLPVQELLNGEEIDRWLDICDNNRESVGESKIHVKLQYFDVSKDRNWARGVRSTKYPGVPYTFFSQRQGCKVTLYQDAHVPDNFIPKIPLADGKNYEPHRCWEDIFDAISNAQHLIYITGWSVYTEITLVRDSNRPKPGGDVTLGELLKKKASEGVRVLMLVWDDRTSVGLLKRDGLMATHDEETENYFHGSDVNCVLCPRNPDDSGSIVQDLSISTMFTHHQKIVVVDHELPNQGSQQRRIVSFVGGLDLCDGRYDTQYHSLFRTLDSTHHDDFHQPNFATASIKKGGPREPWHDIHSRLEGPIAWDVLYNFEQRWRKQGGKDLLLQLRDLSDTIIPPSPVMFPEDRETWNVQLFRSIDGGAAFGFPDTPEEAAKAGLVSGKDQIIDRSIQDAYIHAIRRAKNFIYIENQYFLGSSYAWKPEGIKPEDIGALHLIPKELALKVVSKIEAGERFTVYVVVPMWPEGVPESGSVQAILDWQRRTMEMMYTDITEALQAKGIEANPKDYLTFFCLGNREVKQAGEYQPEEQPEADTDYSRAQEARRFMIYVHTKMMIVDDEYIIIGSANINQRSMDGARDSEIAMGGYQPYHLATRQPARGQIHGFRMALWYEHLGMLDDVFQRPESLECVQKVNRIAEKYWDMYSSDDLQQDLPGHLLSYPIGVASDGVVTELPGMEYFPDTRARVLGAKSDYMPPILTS
T1 sequence (Q43007 47-812 P139S): as above

Substance: phosphatidylcholine
- Km [1]: 290 µM
- Km [2]: 290 µM
